Source: US9951052B2, “Inhibitors of the renal outer medullary potassium channel” (Merck Sharp & Dohme Corp., priority 2013, dated 2018)
Structures can show the parent of a compound that is named as a salt.

Molecular target: T1, hROMK (hKir1.1) (Homo sapiens, UniProt P48048)
T1 construct: expressed in transfected cells
T1 sequence (P48048 1-391): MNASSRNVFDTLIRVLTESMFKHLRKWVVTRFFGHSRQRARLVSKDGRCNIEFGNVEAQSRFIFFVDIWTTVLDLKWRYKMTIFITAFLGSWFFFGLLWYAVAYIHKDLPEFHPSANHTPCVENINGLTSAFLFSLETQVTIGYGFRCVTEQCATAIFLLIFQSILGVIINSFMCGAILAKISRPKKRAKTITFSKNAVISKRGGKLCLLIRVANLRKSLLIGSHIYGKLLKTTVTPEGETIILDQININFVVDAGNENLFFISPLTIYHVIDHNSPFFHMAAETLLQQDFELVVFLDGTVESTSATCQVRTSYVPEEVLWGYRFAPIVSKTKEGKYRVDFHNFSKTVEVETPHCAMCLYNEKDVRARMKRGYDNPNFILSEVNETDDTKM
Experiment: Thallium Flux Assay (ROMK channel functional thallium flux, FLIPR-Tetra)
Assay type: cell-based
Conditions: HEK293 cells stably expressing hROMK (hKir1.1); 30 min incubation with compound; HCl salt run where final product was an HCl salt
Method: The following Thallium Flux Assay was performed on each of the final product compounds in the Examples. When the final product of an Example was an HCl salt, the salt was run in the Assay.
Cell Culture Conditions—HEK293 cells stably expressing hROMK (hKir1.1) were grown at 37° C. in a 10% CO2 humidified incubator in complete growth media: Dulbecco's Modified Eagle Medium supplemented with non-essential amino acids, Penicillin/Streptomycin/Glutamine, G418 and FBS. At >80% confluency, aspirate the media from the flask and rinse with 10 mL Calcium/Magnesium-free PBS. Add 5 mL of 1× trypsin (prepared in Ca/Mg Free PBS) to T-225 flask and return flask to 37° C./CO2 incubator for 2-3 minutes. To dislodge the cell, gently bang the side of the flask with your hand. Triturate the cells completely and then transfer the cells to 25 mL complete media. Centrifuge at 1,500 rpm for 6 min followed by resuspension in complete growth media and determine cell concentration. For typical re-seeding, 4E6 cells/T-225 flask will attain >80% confluency in 4 days. Under ideal growth conditions and appropriate tissue culture practices, this cell line is stable for 40-45 passages.
FluxOR Kit Components (Invitrogen F10017)
• FluxOR™ Reagent (Component A) • FluxOR™ Assay Buffer (Component B)—10× Concentrate • PowerLoad™ Concentrate (Component C)—100× Concentrate • Probenecid (Component D)—Lyophilized sample is kept at −20° C. Water soluble, 100× after solubilization in 1 mL water. Store at 4° C. • FluxOR™ Chloride-free Buffer (Component E)—5× Concentrate • Potassium sulfate (K2SO4) Concentrate (Component F)—125 mM in water. Store at 4° C. • Thallium sulfate (T12SO4) Concentrate (Component G)—50 mM in water. Store at 4° C. • DMSO (dimethyl sulfoxide, Component H)—1 mL (100%) Reagent Preparation: FluxOR Working Solutions • 1000× FluxOR™ Reagent: Reconstitute a vial of component A in 100 μl DMSO; Mix well; Store 10 μl aliquots at −20° C. • 1× FluxOR™ Assay Buffer: Dilute Component B 10-fold with water; Adjust pH to 7.4 with Hepes/NaOH; Filter and store at 4° C. • Probenecid/Assay Buffer: 100 mL of 1× FluxOR™ Assay Buffer; 1 mL of reconstituted component D; Store at 4° C. • Loading Buffer (per microplate): 10 μl 1000× FluxOR™ Reagent; 100 μl component C; 10 mL Probenecid/Assay Buffer • Compound Buffer (per microplate): 20 mL Probenecid/Assay Buffer; 0.3 mM ouabain (10 mM ouabain in water can be stored in amber bottle/aluminum foil at room temperature); Test compound • 1× FluxOR™ Chloride-Free Buffer: Prepare 1× working solution in water. Can be stored at room temperature • Stimulant Buffer (prepared at 5× final concentration in 1× FluxOR™ Chloride-Free Buffer): 7.5 mM Thallium sulfate and 0.75 mM Potassium sulfate (to give a final assay concentration of 3 mM Thallium/0.3 mM Potassium). Store at 4° C. when not in use.
Assay protocol—The ROMK channel functional thallium flux assay is performed in 384 wells, using the FLIPR-Tetra instrument. HEK-hKir1.1 cells are seeded in Poly-D-Lysine microplates and kept in a 37° C.-10% CO2 incubator overnight. On the day of the experiment, the growth media is replaced with the FluxOR™ reagent loading buffer and incubated, protected from light, at ambient temperature (23-25° C.) for 90 min. The loading buffer is replaced with assay buffer±test compound followed by 30 min incubation at ambient temperature, where the Thallium/Potassium stimulant is added to the microplate.
• 1. Seed HEK-hKir1.1 cells (50 μl at 20,000 cells/well) in 384-well PDL coated Microplates • 2. Allow cells to adhere overnight in humidified 37° C./10% CO2 incubator • 3. Completely remove cell growth media from microplate and replace with 25 μl loading buffer • 4. Incubate Microplate at room temperature, protected from light, for 90 min • 5. Remove loading buffer and replace with 25 μl 1× Assay Buffer±test compound. • 6. Incubate microplate at room temperature, protected from light, for 30 min • 7. […]

Row | Structure (SMILES) | IC50 [nM]
1 | COc1nsc(N(C)C(=O)C2CCN(C[C@H](O)c3ccc4c(c3C)COC4=O)CC2)n1 [Example 45, (R)-1-(2-hydroxy-2-(4-methyl-1-oxo-1,3-dihydroisobenzofuran-5-yl)ethyl)-N-(3-methoxy-1,2,4-thiadiazol-5-yl)-N-methylpiperidine-4-carboxamide] | 250
2 | Cc1c([C@@H](O)CN2CCC(N)(C(=O)Nc3ccns3)CC2)ccc2c1COC2=O [Example 46, 4-amino-1-[(2R)-2-hydroxy-2-(4-methyl-1-oxo-1,3-dihydro-2-benzofuran-5-yl)ethyl]-N-(isothiazol-5-yl)piperidine-4-carboxamide hydrochloride] | 50
3 | Cc1c([C@@H](O)CN2CCC(F)(C(=O)Nc3ccns3)CC2)ccc2c1COC2=O [Example 47, 4-fluoro-1-[(2R)-2-hydroxy-2-(4-methyl-1-oxo-1,3-dihydro-2-benzofuran-5-yl)ethyl]-N-(isothiazol-5-yl)piperidine-4-carboxamide] | 60
4 | Cc1cc(NC(=O)C2(F)CCN(C[C@H](O)c3ccc4c(c3C)COC4=O)CC2)sn1 [Example 48, (R)-4-fluoro-1-(2-hydroxy-2-(4-methyl-1-oxo-1,3-dihydroisobenzofuran-5-yl)ethyl)-N-(3-methylisothiazol-5-yl)piperidine-4-carboxamide] | 40
5 | Cc1c([C@@H](O)CN2CCC(F)(C(=O)N3CCc4cnccc43)CC2)ccc2c1COC2=O [Example 49, (R)-5-(2-(4-(2,3-dihydro-1H-pyrrolo[3,2-c]pyridine-1-carbonyl)-4-fluoropiperidin-1-yl)-1-hydroxyethyl)-4-methylisobenzofuran-1(3H)-one] | 200
6 | Cc1c([C@@H](O)CN2CCC(F)(C(=O)Nc3cnsc3)CC2)ccc2c1COC2=O [Example 50, (R)-4-fluoro-1-(2-hydroxy-2-(4-methyl-1-oxo-1,3-dihydroisobenzofuran-5-yl)ethyl)-N-(isothiazol-4-yl)piperidine-4-carboxamide] | 370

Results, then the molecule that gave them:

Row | IC50 [nM] | Structure (SMILES)
7 | 220 | Cc1nc(NC(=O)C2(F)CCN(C[C@H](O)c3ccc4c(c3C)COC4=O)CC2)ccc1C#N [Example 51, (R)-N-(5-cyano-6-methylpyridin-2-yl)-4-fluoro-1-(2-hydroxy-2-(4-methyl-1-oxo-1,3-dihydroisobenzofuran-5-yl)ethyl)piperidine-4-carboxamide]
8 | 260 | Cc1c([C@@H](O)CN2CCC(F)(C(=O)Nc3ccc(C#N)cn3)CC2)ccc2c1COC2=O [Example 52, (R)-N-(5-cyanopyridin-2-yl)-4-fluoro-1-(2-hydroxy-2-(4-methyl-1-oxo-1,3-dihydroisobenzofuran-5-yl)ethyl)piperidine-4-carboxamide]
9 | 260 | Cc1c([C@@H](O)CN2CCC(F)(C(=O)Nc3cnns3)CC2)ccc2c1COC2=O [Example 53, (R)-4-fluoro-1-(2-hydroxy-2-(4-methyl-1-oxo-1,3-dihydroisobenzofuran-5-yl)ethyl)-N-(1,2,3-thiadiazol-5-yl)piperidine-4-carboxamide]
10 | 160 | Cc1c([C@@H](O)CN2CC3C(C2)C3C(=O)Nc2ccns2)ccc2c1COC2=O (stereo partly drawn) [Example 54, 3-[(2R)-2-hydroxy-2-(4-methyl-1-oxo-1,3-dihydro-2-benzofuran-5-yl)ethyl]-N-(isothiazol-5-yl)-3-azabicyclo[3.1.0]hexane-6-carboxamide]
11 | 60 | Cc1cc(NC(=O)C2C3CN(C[C@H](O)c4ccc5c(c4C)COC5=O)CC32)sn1 (stereo partly drawn) [Example 55, 3-((R)-2-hydroxy-2-(4-methyl-1-oxo-1,3-dihydroisobenzofuran-5-yl)ethyl)-N-(3-methylisothiazol-5-yl)-3-azabicyclo[3.1.0]hexane-6-carboxamide]
12 | 350 | Cc1nsc(NC(=O)C2C3CN(C[C@H](O)c4ccc5c(c4C)COC5=O)CC32)n1 (stereo partly drawn) [Example 56, 3-((R)-2-hydroxy-2-(4-methyl-1-oxo-1,3-dihydroisobenzofuran-5-yl)ethyl)-N-(3-methyl-1,2,4-thiadiazol-5-yl)-3-azabicyclo[3.1.0]hexane-6-carboxamide]
